{"source": "patent USRE29842E", "about": "“Untriakontapeptide with opiate activity” (Hoffmann-La Roche Inc., priority 1977, dated 1978)", "key": {"[1]": {"tested_on": "opiate receptor, guinea pig brain membranes", "test": "Opiate agonist activity by receptor binding assay (method of Simon et al.)", "conditions": "for Percentage of inhibition of stereospecific binding: mean ± standard error from 4 determinations", "procedure": "The opiate agonist activity of natural beta-endophine was determined by the method of Simon et al., Proc. Nat. Acad. Sci. 70, 1947 (1973) using guinea pig brain membranes."}, "[2]": {"conditions": "Hughes et al. Nature 258, 557 (1975); cited from earlier work"}, "[3]": {"tested_on": "rabbit fat cells", "test": "Lipolytic activity in rabbit fat cells (procedure of Li et al.)", "assay_type": "cell-based", "conditions": "triplicate, mean ± standard error", "description": "The lypolytic activity of natural beta-endorphin was compared to the activity of ovine beta-lipotropin hormone in rabbit fat cells using the procedure of Li et al., Arch. Biochem. Biophys. 169, 669 (1975)."}}, "note": "No end group written: not given here."}
{"molecule": "Oc1ccc2c3c1O[C@H]1[C@@H](O)C=C[C@H]4[C@@H](C2)NCC[C@@]341", "note": "[Normophine, reference compound]", "values": [{"measurement": "Percentage of inhibition of stereospecific binding", "setting": "[1]; dose 0.7 (10-^7 M)", "value": "28 ± 0.8"}, {"measurement": "Percentage of inhibition of stereospecific binding", "setting": "[1]; dose 7.0 (10-^7 M)", "value": "70 ± 0.9"}]}
{"molecule": "H-Tyr-Gly-Gly-Phe-Met-OH (H-YGGFM-OH) [pentapeptide isolated from pig brains by Hughes et al]", "values": [{"measurement": "Opiate agonist activity (in words)", "setting": "[2]", "value": "exhibits opiate agonist activity"}]}
{"molecule": "YGGFMTSEKSQTPLVTLFKNAIIKNAHKKGQ [beta-endorphin]", "values": [{"measurement": "Lipolytic activity: glycerol production", "setting": "[3]; dose 1.1 (unit not given)", "value": "0.66 ± 0.28 Micromole of glycerol producti"}, {"measurement": "Lipolytic activity: glycerol production", "setting": "[3]; dose 10.0 (unit not given)", "value": "1.42 ± 0.37 Micromole of glycerol producti"}, {"measurement": "Percentage of inhibition of stereospecific binding", "setting": "[1]; dose 1.0 (10-^7 M)", "value": "60 ± 0.7"}, {"measurement": "Percentage of inhibition of stereospecific binding", "setting": "[1]; dose 10.0 (10-^7 M)", "value": "83 ± 0.2"}, {"measurement": "Potency, times that for normophine on a molar basis", "setting": "[1]; molar basis", "value": 3.42, "unit": "times"}]}
